Laboratory results published in US9388160B2, “Quinazoline derivatives as kinases inhibitors and methods of use thereof” (TELIGENE LTD., priority 2011, dated 2016).

What was measured:
[1] = test system: NCI-H-1975 cell line xenograft; test: In vivo subcutaneous NCI-H-1975 cell line xenograft model in nude mice; design: species or system Balb/c nude mice
Text: A representative protocol for the in vivo experiment is as followed to establish the subcutaneous NCI-H-1975 cell line xenograft model in nude mice and to evaluate the in vivo therapeutic efficacy of the compounds: Animals: Male Balb/c nude mice (6˜8 weeks old) were obtained from SLAC Laboratory Animal, Shanghai, China. Animals were maintained under SPF conditions in sterile filter top cages and housed on HEPA-filtered ventilated racks. Animals received sterile rodent chow and water ad libitum. Cell line: NCI-H-1975 cell line, S.c. Xenograft Models in Athymic Mice: Cells for implantation into athymic mice were harvested and pelleted by centrifugation at 1200 r/min for 5 min. Cells were washed once and resuspended in sterile PBS buffer with 5×10^6 in 200 μl. Then cells were implanted s.c. into the right scapular region of each mouse and allowed to grow to 200-300 mm^3 before the administration of compound. Preparation of the Dose Formulation: each compound was suspensioned in 0.5% CMC-Na. Randomization: When tumor volumes approach 200-300 mm^3, the mice will be randomized into 5 groups according to the tumor volume. The day will be denoted as D1 and the treatments will be started at this day. Administered: Dose will be administered with oral gavage needle once daily for number of days. Treatment of compounds administered in 0.5% CMC—Na by p.o. gavage was initiated when tumors were 200˜300 mm^3 in volume. Observations: After inoculation, the animals will be checked daily for morbidity and mortality. At the time of routine monitoring, the animals will be checked for any effects of tumor growth and treatments on normal behavior such as mobility, body weight gain/loss (body weights will be measured twice weekly or every other day), eye/hair matting and any other abnormal effect. Death and observed clinical signs will be recorded on the basis of the numbers of animals within each subset. Tumor Size Measurements: Tumor volume was determined by measurement with electronic vernier calipers every 3 days and tumor volume was calculated as the product of its length×width^2×0.5. Effect studies: Tumor volume was expressed on indicated days as the mean tumor volume±SD. Percentage (%) inhibition values were measured for drug-treated mice compared with vehicle-treated mice and are calculated as follows: Tumor growth inhibition(TGI, %)=100−[MTV treated/MTV control]×100. Significant differences between the treated versus the control groups (p<0.05) were determined using t test. At study endpoint, after blood collection, mice were practicsed euthanasia by cervical dislocation, the tumor tissue was collected first, then abdominal cavity was cut open, liver and spleen were excised, then weight after the gallblader was removed respectively. Organ weight and Organ/body weight ratios between the treated versus the control groups were compared. Ratios was calculated as follows: Ratios=Organ weight/(body weight-tumor weight). Both organ weight and Organ/body weight ratios were also expressed as mean±SD, and significant differences between the treated versus the control groups (p<0.05) were determined using t test.
The following Table D lists compounds representative of the invention and their activity in subcutaneous NCI-H-1975 cell line xenograft model in nude mice described above. Compound 11 and Dacomitinib were dosed at 15 mg/kg by oral gavage once daily for number of days. Tumor growth inhibition (TGI, %) was calculated.

EGFR(T790M/L858R) = EGFR(T790M/L858R) (Homo sapiens (Human), UniProt P00533, L858R/T790M); test: In vitro EGFR(T790M/L858R) kinase activity inhibition assay (Kinase-Glo Plus luminescence); type: biochemical; details: 10 μM ATP, poly(Glu,Tyr) substrate
Experimental: (§1) • 1. […] It measures kinase activity by quantitating the amount of ATP remaining in solution following a kinase reaction. The luminescent signal from the assay is correlated with the amount of ATP present and is inversely correlated with the amount of kinase activity. […] The luminescence data were analyzed using the computer software, Graphpad Prism. […] The values of % activity versus a series of compound concentrations were then plotted using non-linear regression analysis of Sigmoidal dose-response curve generated with the equation Y=B+(T−B)/1+10^((LogEC50−X)×Hill Slope), where Y=percent activity, B=minimum percent activity, T=maximum percent activity, X=logarithm of compound and Hill Slope=slope factor or Hill coefficient. The IC50 value was determined by the concentration causing a half-maximal percent activity.

SK-Br-3 Cell line = test: Cell proliferation assay (MTT), SK-Br-3; type: cell-based; details: Homo sapiens, 72 hours treatment
Experimental: (§2) A representative number of compounds were assayed against different cancer cell lines such as NCI-H-1975 or A431 using the cell proliferation assays:
(§3) Cell Proliferation Assays: • 1. 5×10^3 cells per well in 100 μl of medium were seeded in 96-well plate, here the medium contained 5% FBS • 2. 24 hours later, 100 μl fresh medium was added with various concentrations of compounds into each well, while the medium here was free of FBS • 3. After the cells were treated with compounds for 72 hours, 20 μl MTT (5 mg/ml) was added into each well, and then the assay plate was incubated at 37° C. for 4 more hours. • 4. The assay plate was centrifuged at 800 g for 10 min. The medium was aspirated, 150 μl DMSO was added into each well. The plate was gently shaked for 10 min. • 5. The absorbance at 570 nm was measured on the plate reader. • 6. IR %=(WC−WT)/WC*100%.

EGFR = EGFR (Homo sapiens (Human), UniProt P00533); test: In vitro EGFR kinase activity inhibition assay (Kinase-Glo Plus luminescence); type: biochemical; details: 10 μM ATP, poly(Glu,Tyr) substrate
Experimental: as §1

TA1535 and TA1537 = test: Ames Assay, overall mutagenic potential; details: TA1535 and TA1537, with S9 mixture, 3.3-66.6 μM
Experimental: (§4) A representative number of compounds were tested in Ames Assay for assess the mutagenic potential.
(§5) Preparations of culture media/plates and reagents: 0.5 mmol L-histidine-0.5 mmol/L biotin solution; 20% glucose solution; nutrient broth; KCl salt solution (1.65 M KCl+0.4 M MgCl2); 0.2 M phosphate buffer (pH 7.4); co-factors (NADP; glucose 6-phosphate) for S9 mixture; top agar medium; minimal agar medium (Vogel-Bonner medium E); bottom agar medium.
(§6) Preparation of the enriched culture: Take nutrient broth 5 mL, added it to sterile tubes with the cryopreserved strain culture TA1535 and TA1537. After inoculation in nutrient broth, the cultures were kept at 37° C. with oscillation of 100 times/min for 10 hours. The strain cultures should have about 1˜2×10^9 viable cells per milliliters.
(§7) Preparation of 10 ml S9 mixture: Co-factor mixture 9 mL by glucose 6-phosphate 42.3 mg, […] 14.2 mg, 6-phosphate dehydrogenase (3 unit/μl) 10 μl plus riboflavin (9.6 mg dissolved in 700 μL water), and then mixed with 1 ml of the induced rat S9.
Plate incorporation method: In the experiment, place 2 ml of the top agar medium containing 0.5 mmol/L histidine-0.5 mmol/L biotin into the test tubes kept in 45° C. water bath. […]

TA1535 = test: Ames Assay, plate incorporation, strain TA1535; details: with S9 mixture
Experimental: as §4, §5, §6, §7
(§8) Plate incorporation method: In the experiment, place 2 ml of the top agar medium containing 0.5 mmol/L histidine-0.5 mmol/L biotin into the test tubes kept in 45° C. water bath. Into a 1.5 ml sterile Eppendorf tube, it was added 0.1 ml of the bacterial strain in the enriched broth, 0.1 ml of the test compound solution and 0.5 ml of the S9 mixture, thoroughly mixed and incubated for 30 minutes at 37° C. with shaker speed at 150 rpm/min. The liquid mixture in the Eppendorf tube was added to the top agar medium. After mixing it was poured rapidly into the plates with bottom agar plate, turning the plates to allow uniform distribution. Initially placed horizontally for condensation and then placed invertly for 48 hours at 37° C. Count and record the number of revertant colonies per dish.
(§9) Experiment controls: In addition to the set of doses (3.3, 8.3, 33.3 and 66.6 μM) for the test compounds, here are the controls: blank control, sterile control, solvent control, positive mutagen control (2-aminoanthracene at 10 μg/dish).

A431 Cell line = test: Cell proliferation assay (MTT), A431; type: cell-based; details: Homo sapiens, A-431, 72 hours treatment
Experimental: as §2, §3

TA1537 = test: Ames Assay, plate incorporation, strain TA1537; details: with S9 mixture
Experimental: as §4, §5, §6, §7, §8, §9

[2] = Day 3, 15 mg/kg oral gavage once daily
[3] = Day 7, 15 mg/kg oral gavage once daily

Chain of EGFR (P00533 25-1210): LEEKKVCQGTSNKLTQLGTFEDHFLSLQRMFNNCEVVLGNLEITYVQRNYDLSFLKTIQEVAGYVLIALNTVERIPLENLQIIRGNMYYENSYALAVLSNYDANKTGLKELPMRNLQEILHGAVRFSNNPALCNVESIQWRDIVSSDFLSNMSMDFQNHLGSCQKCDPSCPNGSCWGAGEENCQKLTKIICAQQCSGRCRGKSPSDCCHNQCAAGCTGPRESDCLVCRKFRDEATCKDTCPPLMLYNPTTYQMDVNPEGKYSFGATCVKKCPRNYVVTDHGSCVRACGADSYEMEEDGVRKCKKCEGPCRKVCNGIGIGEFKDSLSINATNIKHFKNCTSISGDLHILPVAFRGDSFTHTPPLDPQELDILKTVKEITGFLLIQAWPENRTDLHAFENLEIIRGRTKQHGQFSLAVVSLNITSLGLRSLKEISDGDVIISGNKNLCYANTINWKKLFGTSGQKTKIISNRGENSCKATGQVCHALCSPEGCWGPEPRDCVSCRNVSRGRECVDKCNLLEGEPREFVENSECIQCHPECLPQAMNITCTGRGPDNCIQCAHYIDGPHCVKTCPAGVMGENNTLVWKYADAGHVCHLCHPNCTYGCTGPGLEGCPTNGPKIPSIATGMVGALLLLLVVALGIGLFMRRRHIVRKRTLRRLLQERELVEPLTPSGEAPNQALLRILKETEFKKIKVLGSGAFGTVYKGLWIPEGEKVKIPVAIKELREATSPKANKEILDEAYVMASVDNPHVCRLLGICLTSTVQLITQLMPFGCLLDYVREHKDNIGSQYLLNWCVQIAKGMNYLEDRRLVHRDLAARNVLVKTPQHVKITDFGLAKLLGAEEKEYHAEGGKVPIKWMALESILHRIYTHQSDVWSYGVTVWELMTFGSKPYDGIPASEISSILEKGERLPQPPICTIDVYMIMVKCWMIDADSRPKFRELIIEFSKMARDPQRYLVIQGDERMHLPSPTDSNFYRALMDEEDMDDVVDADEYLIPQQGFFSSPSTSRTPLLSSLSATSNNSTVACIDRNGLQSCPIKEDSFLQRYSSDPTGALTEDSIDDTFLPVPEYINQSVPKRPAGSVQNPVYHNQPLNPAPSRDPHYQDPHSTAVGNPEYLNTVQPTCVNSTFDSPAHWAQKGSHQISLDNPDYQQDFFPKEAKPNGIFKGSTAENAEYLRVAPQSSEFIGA
Chain of EGFR(T790M/L858R) (P00533 25-1210 T790M/L858R): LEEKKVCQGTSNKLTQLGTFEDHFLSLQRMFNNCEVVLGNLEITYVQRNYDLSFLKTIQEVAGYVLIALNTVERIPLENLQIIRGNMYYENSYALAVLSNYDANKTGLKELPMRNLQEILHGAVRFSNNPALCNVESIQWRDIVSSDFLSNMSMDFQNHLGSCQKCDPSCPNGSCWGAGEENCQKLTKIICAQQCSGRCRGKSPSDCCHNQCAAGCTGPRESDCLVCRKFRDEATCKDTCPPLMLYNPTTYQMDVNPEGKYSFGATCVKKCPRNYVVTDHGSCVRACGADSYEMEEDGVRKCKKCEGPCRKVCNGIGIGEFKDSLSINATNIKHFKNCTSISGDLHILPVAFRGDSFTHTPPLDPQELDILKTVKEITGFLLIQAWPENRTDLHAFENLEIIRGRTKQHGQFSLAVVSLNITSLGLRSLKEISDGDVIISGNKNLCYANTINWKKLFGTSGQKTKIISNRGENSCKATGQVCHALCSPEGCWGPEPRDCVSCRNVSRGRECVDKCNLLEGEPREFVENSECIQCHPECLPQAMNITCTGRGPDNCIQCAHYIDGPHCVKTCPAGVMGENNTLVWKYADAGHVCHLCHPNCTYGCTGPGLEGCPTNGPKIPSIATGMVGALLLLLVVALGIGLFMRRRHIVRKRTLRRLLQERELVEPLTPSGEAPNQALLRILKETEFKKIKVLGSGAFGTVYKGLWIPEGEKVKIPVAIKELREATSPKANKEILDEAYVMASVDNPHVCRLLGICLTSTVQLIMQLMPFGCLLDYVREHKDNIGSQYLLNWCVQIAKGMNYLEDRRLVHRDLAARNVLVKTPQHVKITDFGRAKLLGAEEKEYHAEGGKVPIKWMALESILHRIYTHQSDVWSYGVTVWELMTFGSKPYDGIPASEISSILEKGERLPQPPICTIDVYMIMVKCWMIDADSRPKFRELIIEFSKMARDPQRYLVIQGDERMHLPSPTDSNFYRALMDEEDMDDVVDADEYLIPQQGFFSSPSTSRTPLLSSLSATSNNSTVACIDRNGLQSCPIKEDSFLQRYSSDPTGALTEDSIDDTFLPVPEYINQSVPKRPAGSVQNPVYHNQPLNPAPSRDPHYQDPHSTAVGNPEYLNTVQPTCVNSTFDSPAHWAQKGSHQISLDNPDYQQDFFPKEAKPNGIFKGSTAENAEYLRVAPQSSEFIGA

Compound	Tumor growth inhibition compared with Dacomitinib ([1]; 15 mg/kg oral gavage once daily)	Tumor growth inhibition (TGI, %) [1, 2]	Tumor growth inhibition (TGI, %) [1, 3]	IC50 (EGFR(T790M/L858R))	IC50 (SK-Br-3 Cell line)	IC50 (EGFR)	Ames Assay result (mutagenic potential) (TA1535 and TA1537)	TA1535 Colony number (TA1535; 3.33 uM)	TA1535 Colony number (TA1535; 8.33 uM)	TA1535 Colony number (TA1535; 33.3 uM)	TA1535 Colony number (TA1535; 66.6 uM)	IC50 (A431 Cell line)	TA1537 Colony number (TA1537; 3.33 uM)	TA1537 Colony number (TA1537; 8.33 uM)	TA1537 Colony number (TA1537; 33.3 uM)	TA1537 Colony number (TA1537; 66.6 uM)	TA1535 Colony number (TA1535; 17.27 uM (10 μg/dish))	TA1537 Colony number (TA1537; 17.27 uM (10 μg/dish))
C#Cc1cccc(Nc2ncnc3cc(OCC)c(NC(=O)/C=C/CN4CCCCC4)cc23)c1 [Compound 11, (E)-N-(7-ethoxy-4-((3-ethynylphenyl)amino)quinazolin-6-yl)-4-(piperidin-1-yl)but-2-enamide]	significant better tumor growth inhibition compared with Dacomitinib	30.11%	83.25%	22 nM	85.2 nM	1.7 nM	negative	10	13	18	12	2950 nM	14	12	23	22	–	–
C#Cc1cccc(Nc2ncnc3cc(OC)c(NC(=O)/C=C/CN4CCCCC4)cc23)c1 [Compound 12, (E)-N-(4-((3-ethynylphenyl)amino)-7-methoxyquinazolin-6-yl)-4-(piperidin-1-yl)but-2-enamide]	–	–	–	< 100 nM	116 nM	< 10 nM	positive	17	9	17	9	4900 nM	8	22	47	66	–	–
COc1cc2ncnc(Nc3ccc(F)c(Cl)c3)c2cc1NC(=O)/C=C/CN1CCCCC1 [Dacomitinib, reference compound]	–	19.86%	75.36%	–	225 nM	–	–	–	–	–	–	19500 nM	–	–	–	–	–	–
Nc1ccc2cc3ccccc3cc2c1 [2-aminoanthracene, reference compound]	–	–	–	–	–	–	–	–	–	–	–	–	–	–	–	–	205	260
